{
  "source": "patent US20200317813A1",
  "about": "“TREATMENT AND DIAGNOSIS OF NON-PROLIFERATIVE DIABETIC RETINOPATHY” (Johann Wolfgang Goethe-Universitat Frankfurt am Main, priority 2016, published 2020)",
  "key": {"[1]": {"system": "retinas from wild-type and Ins2Akita mice", "assay": "Retinal growth factor and Notch gene expression in mice treated with sEH inhibitor", "type": "in vivo, mouse", "protocol": "Total RNA from retinas was extracted using an RNeasy kit (QIAGEN, Hilden, Germany), and equal amounts (1 μg) of total RNA was reverse transcribed (Superscript III; Invitrogen). Gene expression levels were detected using SYBR Green (Absolute QPCR SYBR Green Mix; Thermo Fisher Scientifc). The relative expression levels of the different genes studied was calculated using the 2^−ΔΔCt method with the 18S RNA as a reference."}, "Ins2Akita mice": {"system": "Ins2Akita mice", "settings": "mouse, in vivo"}, "pericytes [2]": {"system": "pericytes", "assay": "N-cadherin internalization assay", "type": "cell-based, human", "settings": "3 μmol/L, 3 hours (not shown)", "protocol": "(§1) VE-cadherin internalization was determined as described^40. Endothelial cells were cultured on culture slides (BD, Heidelberg, Germany) coated with crosslinked gelatin until confluent and starved with 2% FCS overnight. Cells were then incubated with antibody against extracellular domain of human VE-cadherin (clone BV6, ALX-803-305 Enzo Life Sciences, Lörrach, Germany) at 4° C. for 1 hour in MCDB131 with 1% BSA medium. Unbound antibody was removed by rinsing cells with ice-cold MCDB131 medium. […] To block the degradation of internalized VE-cadherin chloroquine (300 μmol/L) was be added to the incubation medium. To assess internalized endogenous VE-cadherin cells were washed with ice-cold acid wash buffer (Hanks buffer, pH=2.7, containing 25 mmol/L glycine and 1% BSA) to assess total VE-cadherin cells were rinsed with ice-cold neutral washing buffer (Hanks buffer with 1% BSA, pH=7.4). Cells were fixed with 4% PFA for 15 minutes at 4° C. and then processed for immunofluorescence. To assess N-cadherin internalization, pericytes were incubated with an antibody against the extracellular domain of human N-cadherin (clone 8C11, 350802 BioLegend, CA. USA) at 4° C. for 1 hour in DMEM containing 1% BSA. […] Samples were imaged with an SP8 confocal microscope (Leica) and internalized particles were quantified using ImageJ (NIH) software."}, "human endothelial cells": {"system": "human endothelial cells", "assay": "VE-cadherin staining and internalization in cultured endothelial cells", "type": "cell-based", "settings": "3 hours; for internalization of VE-cadherin: in the presence of t-AUCB (10 μmol/L), pre-labelled antibody and immunoprecipitation", "protocol": "Cells were fixed with 4% PFA for 10 min at room temperature. After washing with PBS samples were blocked and permeabilized with 1% BSA, 5% horse serum, 0.5% Triton X-100 at room temperature for 2 hours or at 4° C. overnight before being exposed to primary antibody (4° C., overnight). After extensive washing and exposure to Alexa Fluor-coupled secondary antibody (1:200, 2 hours, room temperature) samples were mounted in fluorescent mounting medium and analyzed with a confocal microscope; Leica SP8 confocal microscope and LASX software (Wetzlar, Germany) or Carl Zeiss LSM-780 and ZEN software (Jena, Germany) as described^6′^32.\nas §1, with “immunofluorescence.” for “immunofluorescence. To assess N-cadherin internalization, pericytes were incubated with an antibody against the extracellular domain of human N-cadherin (clone 8C11, 350802 BioLegend, CA. USA) at 4° C. for 1 hour in DMEM containing 1% BSA.”\nConfluent cultures of human endothelial cells were incubated with antibodies recognizing the extracellular domains of human VE-cadherin (BV6 antibody) at 4° C. […] Samples were washed with lysis buffer and analyzed by SDS-PAGE."}, "[3]": {"system": "murine brain microvascular endothelial cells", "assay": "Transendothelial electrical resistance (TEER)", "type": "cell-based, mouse", "settings": "19,20-EDP/19,20-DHDP 3 μmol/L, VEGF 20 ng/ml, 24 hours", "protocol": "Impedance measurements were performed using isolated murine brain microvascular endothelial cells with a cellZscope device (nano-Analytics) as described^38. […] Measurements were performed four times in quadruplicate with endothelial cells from four different cell preparations."}, "[4]": {"system": "retinas from 7 month old wild-type mice", "assay": "Retinal explants, ex vivo retina whole mount model", "type": "cell-based, mouse", "settings": "ex vivo organ culture, 4 day period, 5 μmol/L", "protocol": "Eyes from 7 months old animals were enucleated and immersed in ice-cold HBSS containing penicillin (100 U/mL) and streptomycin (100 μg/mL). Retinas were carefully dissected under stereomicroscope and divided into four quadrants with four deep radial incisions. The explants were transferred onto tissue culture inserts (0.4 μm pore, Millipore; Cork, Ireland) with the retinal ganglion cell side facing up. The inserts were placed into the wells of a 6-well plate. A serum free retinal explant media (Neurobasal A, Invitrogen) supplemented with 2% B27 (Invitrogen), 1% N2 (Invitrogen), L-glutamine (0.8 mmol/L), penicillin (100 U/mL), and streptomycin (100 μg/mL) were added to the bottle of the wells and 3 μL of media was dropped on top of the retina to keep it moist. […] After 4 days, retinas were fixed and processed as described above."}, "pericytes [5]": {"system": "pericytes", "assay": "In vitro pericyte migration on endothelial cell monolayer", "type": "cell-based, human", "settings": "3 μmol/L", "protocol": "Human umbilical vein endothelial cells were isolated and cultured as described^37, seeded on μ-slides (ibidi, Martinsried, Germany) and grown to confluence. Pericytes were labeled with cell tracker green (Invitrogen) and added to the endothelial cell monolayer. Cells were treated with either solvent (0.03% DMSO), 19,20-EDP (3 μmol/L), 19,20-DHDP (3 μmol/L). Cells were incubated in an IncuCyte imaging system (Essen Bioscience) that took photographs automatically every 15 minutes for 48 hours. Pericyte movement on top of the endothelial cell monolayer were tracked manually and analyzed with Image J (NIH, Bethesda, Md., USA). In some experiments pericytes were treated with small interfering RNA directed against N-cadherin (sc-29403, Santa Cruz). Transfection was performed with lipofectamine 2000 (Invitrogen) following the manufacturer's instructions and a scrambled control siRNA was used as control."}, "[6]": {"system": "endothelial cell-pericyte co-cultures", "assay": "Endothelial cell-pericyte co-culture: cadherin expression, lipid rafts, immunoprecipitation", "type": "cell-based, human", "settings": "for N-cadherin expression in cocultured cells: 19,20-EDP/19,20-DHDP 3 μmol/L, VEGF 20 ng/ml; for N-cadherin expression in cocultured cells / association (co-precipitation) of PS1 with N-cadherin and VE-cadherin / association of p120 catenin with N- or VE-cadherin: 24 hours; for lipid raft association and membrane presentation of N-cadherin: endothelial cell-pericyte cocultures; for association (co-precipitation) of PS1 with N-cadherin and VE-cadherin / association of p120 catenin with N- or VE-cadherin: immunoprecipitation from co-cultures", "protocol": "Human umbilical vein endothelial cells were cultured on fibronectin coated dishes until confluent. Then pericytes were seeded on top of the endothelial cells (PC:EC=1:5) and cocultured for a further 3 days. […] Cells were then lysed with HEPES buffer: 25 mmol/L HEPES pH 7.4, 150 mmol/L NaCl, complete protease inhibitor cocktail (Roche), and 1% digitonin (Sigma). Following centrifugation at 17,000 g for 10 minutes, supernatants (1 mg of protein) were pre-cleaned with protein A/G agarose (Pierce) for 30 mins. Supernatants were then incubated with anti-VE-cadherin (1:1000, AF1002 R&D systems, Abingdon, UK) or N-cadherin (1:1000, 33-3900 life technologies, CA, USA) antibodies at 4° C. for 2 hours and then treated with protein A/G agarose for a further 2 hours. Samples were washed with lysis buffer and analyzed by SDS-PAGE.\nSamples were separated by SDS-PAGE and subjected to Western blotting as described^41. Membranes were blocked in 3% BSA in PBS, incubated with primary and horseradish peroxidase-conjugated secondary antibodies in blocking solution, and detection was performed with a Lumi-Light plus western blotting substrate (Roche).\nLipid rafts were isolated as described with modifications^42. Briefly, cells were harvested by scraping and homogenized at 4° C. in sodium carbonate (0.5 mol/L, pH11) using a glass homogenizer, followed by sonication. Then, equal amounts of protein were adjusted to a final sucrose concentration of 45% (final volume, 4 mL) and transferred to 12 mL ultracentrifuge tubes. A discontinuous sucrose gradient was then formed by sequentially overlaying 4 mL of 35% and 4 ml, of 5% sucrose. Samples were subjected to ultracentrifugation (35,000 rpm, 4° C. for 20 hours) using a Beckman SW 41 rotor (Krefeld, Germany). After centrifugation, twelve 1 mL fractions were collected using a capillary tube connected to a peristaltic pump, and equal volumes of each faction were analyzed by SDS-PAGE using antibodies against flotillin 1 (1:2000, 610820 BD Biosciences, Heidelberg, Germany), VE-cadherin (1:1000, sc-28644 Santa Cruz, Darmstadt, Germany) and N-cadherin (1:1000, 33-3900 lifetechnologies, CA, USA)."}, "γ-secretase": {"target": "γ-secretase (Homo sapiens, UniProt P49768)", "settings": "by redistribution of PS1 out of lipid rafts, retina; cited from earlier work"}, "sEH": {"target": "T1, sEH (Homo sapiens, UniProt P34913)", "T1 sequence (P34913 1-555)": "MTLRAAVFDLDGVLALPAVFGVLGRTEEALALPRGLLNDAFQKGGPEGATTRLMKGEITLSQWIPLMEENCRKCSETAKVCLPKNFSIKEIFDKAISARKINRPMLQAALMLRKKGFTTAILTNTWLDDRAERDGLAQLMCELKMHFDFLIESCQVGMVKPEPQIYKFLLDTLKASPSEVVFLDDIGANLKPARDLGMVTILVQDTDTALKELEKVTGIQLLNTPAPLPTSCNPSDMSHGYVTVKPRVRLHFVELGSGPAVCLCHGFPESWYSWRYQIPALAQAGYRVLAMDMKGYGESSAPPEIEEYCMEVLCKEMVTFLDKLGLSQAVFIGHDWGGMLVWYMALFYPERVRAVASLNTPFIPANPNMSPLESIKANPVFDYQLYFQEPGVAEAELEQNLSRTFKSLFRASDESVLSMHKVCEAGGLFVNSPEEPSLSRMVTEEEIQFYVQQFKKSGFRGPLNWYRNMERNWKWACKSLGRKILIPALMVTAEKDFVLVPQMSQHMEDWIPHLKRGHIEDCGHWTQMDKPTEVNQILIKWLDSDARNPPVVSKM", "settings": "cited from earlier work"}},
  "data": [
    {"compound": "O=C(NC12CC3CC(CC(C3)C1)C2)N[C@H]1CC[C@H](Oc2ccc(C(=O)O)cc2)CC1", "note": "(relative stereo) [t-AUCB, trans-4-[4-(3-adamantan-1-ylureido)cyclohexyloxy]-benzoic acid]", "values": [
      {"measurement": "Hey1 and Jagged 1 expression", "setting": "[1]", "result": "tend to increase"},
      {"measurement": "PDFG receptor β levels in retinas", "setting": "[1]", "result": "failed to significantly alter"},
      {"measurement": "PDGFB expression in retinas", "setting": "[1]", "result": "increased"},
      {"measurement": "N-cadherin expression in retinas", "setting": "Ins2Akita mice", "result": "largely maintained"},
      {"measurement": "co-localization of VE-cadherin and N-cadherin with PS1 in retinas", "setting": "Ins2Akita mice", "result": "maintained"},
      {"measurement": "loss of desmin positive cells in retinas", "setting": "Ins2Akita mice", "result": "prevented"}
    ]},
    {"compound": "19,20-dihydroxydocosapentaenoic acid [19,20-DHDP]", "values": [
      {"measurement": "N-cadherin internalization", "setting": "pericytes [2]", "result": "induce"},
      {"measurement": "VE-cadherin staining of confluent endothelial cells", "setting": "human endothelial cells; 3 μmol/L", "result": "discontinuous"},
      {"measurement": "internalization of VE-cadherin", "setting": "human endothelial cells", "result": "detected"},
      {"measurement": "transendothelial electrical resistance", "setting": "[3]", "result": "decreased"},
      {"measurement": "capillary pericyte loss and pericyte migration", "setting": "[4]", "result": "induced"},
      {"measurement": "pericyte motility", "setting": "pericytes [5]", "result": "increase"},
      {"measurement": "N-cadherin expression in cocultured cells", "setting": "[6]", "result": "decreased"},
      {"measurement": "lipid raft association and membrane presentation of N-cadherin", "setting": "[6]", "result": "disrupt"},
      {"measurement": "association (co-precipitation) of PS1 with N-cadherin and VE-cadherin", "setting": "[6]", "result": "attenuated"},
      {"measurement": "association of p120 catenin with N- or VE-cadherin", "setting": "[6]", "result": "did not influence"},
      {"measurement": "γ-secretase activity", "setting": "γ-secretase", "result": "inhibit"}
    ]},
    {"compound": "CCC1OC1CC=CCC=CCC=CCC=CCC=CCCC(=O)O", "note": "(stereo not shown) [19,20-EDP, 19,20 epoxydocosapentaenoic acid]", "values": [
      {"measurement": "N-cadherin internalization", "setting": "pericytes [2]", "result": "not"},
      {"measurement": "internalization of VE-cadherin", "setting": "human endothelial cells", "result": "not"},
      {"measurement": "capillary pericyte loss and pericyte migration", "setting": "[4]", "result": "largely ineffective"},
      {"measurement": "N-cadherin expression in cocultured cells", "setting": "[6]", "result": "without effect"},
      {"measurement": "lipid raft association and membrane presentation of N-cadherin", "setting": "[6]", "result": "not"},
      {"measurement": "association (co-precipitation) of PS1 with N-cadherin and VE-cadherin", "setting": "[6]", "result": "without effect"}
    ]},
    {"compound": "CCCCCCCCCCCCNC(=O)NC12CC3CC(CC(C3)C1)C2", "note": "[ADU, N-Adamantyl-N′-dodecyl urea]", "values": [
      {"measurement": "activity on sEH", "setting": "sEH", "result": "particularly high activity"}
    ]},
    {"compound": "VEGF", "values": [
      {"measurement": "transendothelial electrical resistance", "setting": "[3]", "result": "alterations induced by 19,20-DHDP were however less pronounced than those elicited by vascular endothelial cell growth factor"},
      {"measurement": "N-cadherin expression in cocultured cells", "setting": "[6]", "result": "without effect"},
      {"measurement": "association (co-precipitation) of PS1 with N-cadherin and VE-cadherin", "setting": "[6]", "result": "attenuated"},
      {"measurement": "association of p120 catenin with N- or VE-cadherin", "setting": "[6]", "result": "decreased recovery"}
    ]}
  ]
}
